Key:
Experiment in all cases: relative viability (nuclei count vs DMSO), 5 days (fraction); higher = more cells survive
[1] = compound: CN(c1ncccc1CNc1nc(Nc2ccc3c(c2)CC(=O)N3)ncc1C(F)(F)F)S(C)(=O)=O + CC(=O)Nc1cccc(-n2c(=O)n(C3CC3)c(=O)c3c(Nc4ccc(I)cc4F)n(C)c(=O)c(C)c32)c1 [Trametinib] (partner 0.02 µM)
Procedure, shortened: (§1)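 Lung cancer cell lines in 1536-well plates got either a single drug or a fixed anchor-drug dose together with five library-drug doses (not always all listed) in √10 steps, by pin tool, on the day after seeding. Nuclei were counted after 5 days, and relative viability is the treated-to-vehicle ratio of nuclei counts. Values are medians of duplicate plates.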

[2] = compound: CN(c1ncccc1CNc1nc(Nc2ccc3c(c2)CC(=O)N3)ncc1C(F)(F)F)S(C)(=O)=O + CS(=O)(=O)CCNCc1ccc(-c2ccc3ncnc(Nc4ccc(OCc5cccc(F)c5)c(Cl)c4)c3c2)o1 [Lapatinib] (partner 2 µM)
Procedure, shortened: as §1

[3] = compound: CN(c1ncccc1CNc1nc(Nc2ccc3c(c2)CC(=O)N3)ncc1C(F)(F)F)S(C)(=O)=O + N=C(N)NC(=N)NCCc1ccccc1 [Phenformin] (partner 250 µM)
Procedure, shortened: as §1

[4] = compound: CN(c1ncccc1CNc1nc(Nc2ccc3c(c2)CC(=O)N3)ncc1C(F)(F)F)S(C)(=O)=O + O=C(c1cc(Cc2n[nH]c(=O)c3ccccc23)ccc1F)N1CCN(C(=O)C2CC2)CC1 [Olaparib] (partner 8 µM)
Procedure, shortened: as §1

| Cell Line | relative viability ([1]; first compound 0.01 µM) | relative viability ([1]; first compound 0.03162 µM) | relative viability ([1]; first compound 0.1 µM) | relative viability ([1]; first compound 0.3162 µM) | relative viability ([1]; first compound 1 µM) | relative viability ([2]; first compound 0.01 µM) | relative viability ([2]; first compound 0.03162 µM) | relative viability ([2]; first compound 0.1 µM) | relative viability ([2]; first compound 0.3162 µM) | relative viability ([2]; first compound 1 µM) | relative viability ([3]; first compound 0.01 µM) | relative viability ([3]; first compound 0.03162 µM) | relative viability ([3]; first compound 0.1 µM) | relative viability ([3]; first compound 0.3162 µM) | relative viability ([3]; first compound 1 µM) | relative viability ([4]; first compound 0.01 µM) | relative viability ([4]; first compound 0.03162 µM) | relative viability ([4]; first compound 0.1 µM) | relative viability ([4]; first compound 0.3162 µM) | relative viability ([4]; first compound 1 µM) |
| --- | --- | --- | --- | --- | --- | --- | --- | --- | --- | --- | --- | --- | --- | --- | --- | --- | --- | --- | --- | --- |
| LU99A | 0.559 | 0.663 | 0.564 | 0.65 | 0.574 | 0.971 | 1.19 | 1.01 | 1.17 | 1.08 | 0.874 | 0.706 | 0.952 | 0.924 | 1.15 | 0.26 | 0.305 | 0.302 | 0.261 | 0.236 |
| HCC-366 | 0.41 | 0.398 | 0.296 | 0.303 | 0.308 | 1 | 1.11 | 1.05 | 1.06 | 0.971 | 0.662 | 0.695 | 0.614 | 0.577 | 0.606 | 0.351 | 0.376 | 0.347 | 0.292 | 0.352 |
| EKVX | 0.355 | 0.374 | 0.244 | 0.319 | 0.262 | 0.182 | 0.188 | 0.218 | 0.119 | 0.514 | 0.251 | 0.236 | 0.24 | 0.231 | 0.24 | 0.833 | 0.796 | 0.798 | 0.772 | 0.676 |
| NCI-H2342 | 0.906 | 0.819 | 0.753 | 0.774 | 0.806 |  |  |  |  |  | 0.638 | 0.563 | 0.475 | 0.522 | 0.475 | 0.494 | 0.503 | 0.471 | 0.352 | 0.398 |
| NCI-H1755 | 0.766 | 0.833 | 0.786 | 0.758 | 0.733 | 1.09 | 1.08 | 1.01 | 0.961 | 0.957 | 0.666 | 0.615 | 0.589 | 0.585 | 0.574 | 0.909 | 0.904 | 0.83 | 0.791 | 0.839 |
| NCI-H647 | 0.582 | 0.594 | 0.459 | 0.463 | 0.414 | 1.19 | 1.3 | 1.11 | 1.04 | 1.03 | 0.483 | 0.689 | 0.616 | 0.579 | 0.401 | 0.528 | 0.494 | 0.708 | 0.597 | 0.488 |
| LC-2-ad | 0.876 | 0.932 | 0.926 | 0.905 | 0.793 | 1.12 | 0.958 | 1 | 0.864 | 0.756 | 0.52 | 0.544 | 0.548 | 0.567 | 0.524 | 0.732 | 0.703 | 0.703 | 0.664 | 0.596 |
| NCI-H1793 | 0.473 | 0.4 | 0.419 | 0.519 | 0.567 | 0.542 | 0.654 | 0.79 | 0.575 | 0.691 | 0.398 | 0.384 | 0.403 | 0.247 | 0.197 | 0.88 | 0.685 | 0.777 | 0.948 | 0.769 |

From the supplement of paper PMC10307832
